{
  "source": "BigSolDB 2.1",
  "data": [
    {"smiles": "O=P(NC1CCCCC1)(Oc1ccccc1)Oc1ccccc1", "values": [
      {"measurement": "solubility (mole fraction)", "setting": "in THF, 293.15 K", "value": 0.168},
      {"measurement": "solubility (mole fraction)", "setting": "in THF, 298.15 K", "value": 0.192},
      {"measurement": "solubility (mole fraction)", "setting": "in THF, 303.15 K", "value": 0.229},
      {"measurement": "solubility (mole fraction)", "setting": "in THF, 308.15 K", "value": 0.269},
      {"measurement": "solubility (mole fraction)", "setting": "in THF, 313.15 K", "value": 0.318},
      {"measurement": "solubility (mole fraction)", "setting": "in THF, 318.15 K", "value": 0.372},
      {"measurement": "solubility (mole fraction)", "setting": "in THF, 323.15 K", "value": 0.419},
      {"measurement": "solubility (mole fraction)", "setting": "in THF, 328.15 K", "value": 0.504},
      {"measurement": "solubility (mole fraction)", "setting": "in THF, 333.15 K", "value": 0.567},
      {"measurement": "solubility (mole fraction)", "setting": "in acetone, 293.15 K", "value": 0.0439},
      {"measurement": "solubility (mole fraction)", "setting": "in acetone, 298.15 K", "value": 0.0611},
      {"measurement": "solubility (mole fraction)", "setting": "in acetone, 303.15 K", "value": 0.0796},
      {"measurement": "solubility (mole fraction)", "setting": "in acetone, 308.15 K", "value": 0.109},
      {"measurement": "solubility (mole fraction)", "setting": "in acetone, 313.15 K", "value": 0.134},
      {"measurement": "solubility (mole fraction)", "setting": "in acetone, 318.15 K", "value": 0.187},
      {"measurement": "solubility (mole fraction)", "setting": "in acetone, 323.15 K", "value": 0.229},
      {"measurement": "solubility (mole fraction)", "setting": "in acetone, 328.15 K", "value": 0.271},
      {"measurement": "solubility (mole fraction)", "setting": "in acetonitrile, 293.15 K", "value": 0.0115},
      {"measurement": "solubility (mole fraction)", "setting": "in acetonitrile, 298.15 K", "value": 0.0171},
      {"measurement": "solubility (mole fraction)", "setting": "in acetonitrile, 303.15 K", "value": 0.0248},
      {"measurement": "solubility (mole fraction)", "setting": "in acetonitrile, 308.15 K", "value": 0.0371},
      {"measurement": "solubility (mole fraction)", "setting": "in acetonitrile, 313.15 K", "value": 0.0521},
      {"measurement": "solubility (mole fraction)", "setting": "in acetonitrile, 318.15 K", "value": 0.0759},
      {"measurement": "solubility (mole fraction)", "setting": "in acetonitrile, 323.15 K", "value": 0.106},
      {"measurement": "solubility (mole fraction)", "setting": "in acetonitrile, 328.15 K", "value": 0.148},
      {"measurement": "solubility (mole fraction)", "setting": "in acetonitrile, 333.15 K", "value": 0.191},
      {"measurement": "solubility (mole fraction)", "setting": "in acetonitrile, 338.15 K", "value": 0.263},
      {"measurement": "solubility (mole fraction)", "setting": "in acetonitrile, 343.15 K", "value": 0.358},
      {"measurement": "solubility (mole fraction)", "setting": "in benzene, 293.15 K", "value": 0.077},
      {"measurement": "solubility (mole fraction)", "setting": "in benzene, 298.15 K", "value": 0.0991},
      {"measurement": "solubility (mole fraction)", "setting": "in benzene, 303.15 K", "value": 0.127},
      {"measurement": "solubility (mole fraction)", "setting": "in benzene, 308.15 K", "value": 0.159},
      {"measurement": "solubility (mole fraction)", "setting": "in benzene, 313.15 K", "value": 0.195},
      {"measurement": "solubility (mole fraction)", "setting": "in benzene, 318.15 K", "value": 0.25},
      {"measurement": "solubility (mole fraction)", "setting": "in benzene, 323.15 K", "value": 0.292},
      {"measurement": "solubility (mole fraction)", "setting": "in benzene, 328.15 K", "value": 0.374},
      {"measurement": "solubility (mole fraction)", "setting": "in benzene, 333.15 K", "value": 0.457},
      {"measurement": "solubility (mole fraction)", "setting": "in benzene, 338.15 K", "value": 0.55},
      {"measurement": "solubility (mole fraction)", "setting": "in benzene, 343.15 K", "value": 0.636},
      {"measurement": "solubility (mole fraction)", "setting": "in chloroform, 293.15 K", "value": 0.207},
      {"measurement": "solubility (mole fraction)", "setting": "in chloroform, 298.15 K", "value": 0.233},
      {"measurement": "solubility (mole fraction)", "setting": "in chloroform, 303.15 K", "value": 0.266},
      {"measurement": "solubility (mole fraction)", "setting": "in chloroform, 308.15 K", "value": 0.313},
      {"measurement": "solubility (mole fraction)", "setting": "in chloroform, 313.15 K", "value": 0.352},
      {"measurement": "solubility (mole fraction)", "setting": "in chloroform, 318.15 K", "value": 0.4},
      {"measurement": "solubility (mole fraction)", "setting": "in chloroform, 323.15 K", "value": 0.459},
      {"measurement": "solubility (mole fraction)", "setting": "in chloroform, 328.15 K", "value": 0.518},
      {"measurement": "solubility (mole fraction)", "setting": "in dichloromethane, 278.15 K", "value": 0.0884},
      {"measurement": "solubility (mole fraction)", "setting": "in dichloromethane, 283.15 K", "value": 0.102},
      {"measurement": "solubility (mole fraction)", "setting": "in dichloromethane, 288.15 K", "value": 0.129},
      {"measurement": "solubility (mole fraction)", "setting": "in dichloromethane, 293.15 K", "value": 0.155},
      {"measurement": "solubility (mole fraction)", "setting": "in dichloromethane, 298.15 K", "value": 0.18},
      {"measurement": "solubility (mole fraction)", "setting": "in dichloromethane, 303.15 K", "value": 0.216},
      {"measurement": "solubility (mole fraction)", "setting": "in dichloromethane, 308.15 K", "value": 0.26},
      {"measurement": "solubility (mole fraction)", "setting": "in ethanol, 293.15 K", "value": 0.0358},
      {"measurement": "solubility (mole fraction)", "setting": "in ethanol, 298.15 K", "value": 0.049},
      {"measurement": "solubility (mole fraction)", "setting": "in ethanol, 303.15 K", "value": 0.0638},
      {"measurement": "solubility (mole fraction)", "setting": "in ethanol, 308.15 K", "value": 0.0867},
      {"measurement": "solubility (mole fraction)", "setting": "in ethanol, 313.15 K", "value": 0.116},
      {"measurement": "solubility (mole fraction)", "setting": "in ethanol, 318.15 K", "value": 0.153},
      {"measurement": "solubility (mole fraction)", "setting": "in ethanol, 323.15 K", "value": 0.196},
      {"measurement": "solubility (mole fraction)", "setting": "in ethanol, 328.15 K", "value": 0.253},
      {"measurement": "solubility (mole fraction)", "setting": "in ethanol, 333.15 K", "value": 0.317},
      {"measurement": "solubility (mole fraction)", "setting": "in ethanol, 338.15 K", "value": 0.406},
      {"measurement": "solubility (mole fraction)", "setting": "in ethyl acetate, 293.15 K", "value": 0.0305},
      {"measurement": "solubility (mole fraction)", "setting": "in ethyl acetate, 298.15 K", "value": 0.0395},
      {"measurement": "solubility (mole fraction)", "setting": "in ethyl acetate, 303.15 K", "value": 0.0549},
      {"measurement": "solubility (mole fraction)", "setting": "in ethyl acetate, 308.15 K", "value": 0.0721},
      {"measurement": "solubility (mole fraction)", "setting": "in ethyl acetate, 313.15 K", "value": 0.0946},
      {"measurement": "solubility (mole fraction)", "setting": "in ethyl acetate, 318.15 K", "value": 0.128},
      {"measurement": "solubility (mole fraction)", "setting": "in ethyl acetate, 323.15 K", "value": 0.166},
      {"measurement": "solubility (mole fraction)", "setting": "in ethyl acetate, 328.15 K", "value": 0.211},
      {"measurement": "solubility (mole fraction)", "setting": "in ethyl acetate, 333.15 K", "value": 0.264},
      {"measurement": "solubility (mole fraction)", "setting": "in ethyl acetate, 338.15 K", "value": 0.341},
      {"measurement": "solubility (mole fraction)", "setting": "in ethyl acetate, 343.15 K", "value": 0.426},
      {"measurement": "solubility (mole fraction)", "setting": "in methanol, 293.15 K", "value": 0.0411},
      {"measurement": "solubility (mole fraction)", "setting": "in methanol, 298.15 K", "value": 0.0533},
      {"measurement": "solubility (mole fraction)", "setting": "in methanol, 303.15 K", "value": 0.0702},
      {"measurement": "solubility (mole fraction)", "setting": "in methanol, 308.15 K", "value": 0.0955},
      {"measurement": "solubility (mole fraction)", "setting": "in methanol, 313.15 K", "value": 0.121},
      {"measurement": "solubility (mole fraction)", "setting": "in methanol, 318.15 K", "value": 0.161},
      {"measurement": "solubility (mole fraction)", "setting": "in methanol, 323.15 K", "value": 0.212},
      {"measurement": "solubility (mole fraction)", "setting": "in methanol, 328.15 K", "value": 0.281},
      {"measurement": "solubility (mole fraction)", "setting": "in methanol, 333.15 K", "value": 0.356},
      {"measurement": "solubility (mole fraction)", "setting": "in toluene, 293.15 K", "value": 0.0539},
      {"measurement": "solubility (mole fraction)", "setting": "in toluene, 298.15 K", "value": 0.0688},
      {"measurement": "solubility (mole fraction)", "setting": "in toluene, 303.15 K", "value": 0.0911},
      {"measurement": "solubility (mole fraction)", "setting": "in toluene, 313.15 K", "value": 0.154},
      {"measurement": "solubility (mole fraction)", "setting": "in toluene, 323.15 K", "value": 0.259},
      {"measurement": "solubility (mole fraction)", "setting": "in toluene, 333.15 K", "value": 0.409},
      {"measurement": "solubility (mole fraction)", "setting": "in toluene, 343.15 K", "value": 0.611}
    ]}
  ]
}
